Laboratory results: article PMC8498988, “Scaffold Hybridization Strategy Leads to the Discovery of Dopamine D3 Receptor-Selective or Multitarget Bitopic Ligands Potentially Useful for Central Nervous System Disorders” (ACS Chemical Neuroscience, 2021)

How the values were obtained:
5-HT2AR = 5-HT2AR (Homo sapiens, UniProt P28223); assay: Radioligand binding assay at human 5-HT2AR ([125I]DOI, HEK cells); parameters: expressed in transfected cells; host or cells: HEK (HEK-h5HT2A); conditions: HEK cells expressing h5-HT2AR, read-out: Ki ± SEM, 5-HT2AR
Chain of 5-HT2AR (P28223 whole entry): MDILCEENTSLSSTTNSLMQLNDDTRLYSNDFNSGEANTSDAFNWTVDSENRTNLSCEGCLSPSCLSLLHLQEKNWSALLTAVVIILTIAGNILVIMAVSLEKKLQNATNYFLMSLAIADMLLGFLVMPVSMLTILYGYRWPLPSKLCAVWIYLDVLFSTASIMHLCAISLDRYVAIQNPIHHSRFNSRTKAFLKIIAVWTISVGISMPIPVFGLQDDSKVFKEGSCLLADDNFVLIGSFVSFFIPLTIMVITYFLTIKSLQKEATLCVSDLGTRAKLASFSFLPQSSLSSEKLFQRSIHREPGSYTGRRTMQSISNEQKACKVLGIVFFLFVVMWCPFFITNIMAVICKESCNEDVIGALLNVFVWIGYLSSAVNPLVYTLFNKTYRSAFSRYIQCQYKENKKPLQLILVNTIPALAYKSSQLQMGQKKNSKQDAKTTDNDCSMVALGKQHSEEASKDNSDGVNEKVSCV
Protocol: Human embryonic kidney cells expressing human 5HT2AR (HEK-h5HT2A) or human 5HT2CR (HEK-h5HT2C) are used. The cells are grown until confluent on 15 cm plates. The medium is removed, and the cells are washed with phosphate-buffered saline (PBS), scraped into 2 mL PBS, and frozen at −20 °C until needed. Cell suspension is thawed, 10 mL assay buffer (50 mM Tris, pH 7.4 at 37 °C, with 0.1% ascorbic acid and 5 mM CaCl2) is added per plate of cells, and polytronned at setting 6 for 5 s. The homogenate is centrifuged at 15,500 rpm for 20 min. To minimize the residual 5HT concentration, the pellet is resuspended in buffer, polytronned, and centrifuged as mentioned above. The final pellet is resuspended in 2 mL buffer/plate of cells. The binding assay includes 50 μL drug, 5-HT or buffer, 50 μL cell homogenate, 50 μL [^125I]DOI (∼0.1 nM), and buffer in a final volume of 250 μL. Specific binding is defined as the difference between total binding and binding in the presence of 10 μM 5HT. The reaction is incubated for 1 h at 37 °C and terminated by filtration through Wallac A filter mats presoaked in 0.05% polyethylenimine using a Tomtec 96-well harvester. The radioactivity remaining on filters is determined using a Wallac betaplate reader.

D4R = molecular target: T1, D4R (Homo sapiens, UniProt P21917); assay: Radioligand competition binding at human D4R ([3H]N-methylspiperone, HEK293 membranes); parameters: expressed in transfected cells; host or cells: HEK293; conditions: HEK 293 cells expressing hD4R, read-out: Ki ± SEM, D4R
T1 sequence (P21917 1-419): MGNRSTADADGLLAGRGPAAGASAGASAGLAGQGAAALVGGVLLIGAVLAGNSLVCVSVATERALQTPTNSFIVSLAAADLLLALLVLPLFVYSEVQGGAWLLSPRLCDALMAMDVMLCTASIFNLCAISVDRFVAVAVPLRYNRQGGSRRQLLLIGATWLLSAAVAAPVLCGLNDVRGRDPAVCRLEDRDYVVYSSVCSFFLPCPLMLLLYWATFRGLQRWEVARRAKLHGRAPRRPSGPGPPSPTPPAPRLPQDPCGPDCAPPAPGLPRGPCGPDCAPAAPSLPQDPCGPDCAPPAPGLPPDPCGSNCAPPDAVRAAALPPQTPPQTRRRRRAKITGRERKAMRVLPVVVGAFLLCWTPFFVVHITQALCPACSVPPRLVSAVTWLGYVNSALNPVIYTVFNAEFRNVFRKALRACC
Protocol: The novel hybrid derivatives 3–11 were tested at hD2R, hD3R, or hD4R stably expressed in HEK293 cells by competition binding assays, using [^3H]N-methylspiperone as the radioligand, to evaluate their D2-like affinity and subtype selectivity, following the previously reported procedures.[41],[45],[46]
Binding at dopamine D2-like receptors was determined using previously described methods.[41],[45],[46] Membranes were prepared from HEK293 cells stably expressing human D2, D3, or D4, grown in a 50:50 mix of Dulbecco’s minimal essential medium (DMEM) and Ham’s F12 culture media, supplemented with 20 mM HEPES, 2 mM L-glutamine, 0.1 mM nonessential amino acids, 1× antibiotic/antimycotic, 10% heat-inactivated fetal bovine serum, and 200 μg/mL hygromycin (Life Technologies, Grand Island, NY) and kept in an incubator at 37 °C and 5% CO2. Upon reaching 80–90% confluency, the cells were harvested using premixed Earle’s Balanced Salt Solution (EBSS) with 5 μM EDTA (Life Technologies) and centrifuged at 3000 rpm for 10 min at 21 °C. The supernatant was removed, and the pellet was resuspended in 10 mL hypotonic lysis buffer (5 mM MgCl2, 5 mM Tris, pH 7.4 at 4 °C) and centrifuged at 20,000 rpm for 30 min at 4 °C. The pellet was then resuspended in fresh EBSS buffer made from 8.7 g/L Earle’s Balanced Salts without phenol red (US Biological, Salem, MA), 2.2 g/L sodium bicarbonate, pH to 7.4. A Bradford protein assay (Bio-Rad, Hercules, CA) was used to determine the protein concentration, and membranes were diluted to 500 μg/mL and stored at −80 °C for later use. Radioligand competition binding experiments were conducted using thawed membranes. Test compounds were freshly dissolved in 30% DMSO and 70% H2O to a stock concentration of 100 μM. To assist the solubilization of free-base compounds, 10 μL of glacial acetic acid was added along with DMSO. Each test compound was then diluted into 13 half-log serial dilutions using 30% DMSO vehicle; the final test concentrations ranged from 10 μM to 10 pM. The previously frozen membranes were diluted in fresh EBSS to a 100 μg/mL (for D2 or D3) or 200 μg/mL (D4) stock for binding. Radioligand competition experiments were conducted in glass tubes containing 300 μL of fresh EBSS buffer, 50 μL of diluted test compound, 100 μL of membranes (10 μg of total protein for D2 or D3 and 20 μg of total protein for D4), and 50 μL of [^3H]N-methylspiperone (0.4 nM final concentration; PerkinElmer). Nonspecific binding was determined using 10 μM butaclamol (Sigma-Aldrich, St. Louis, MO), and total binding was determined with the 30% DMSO vehicle. All compound dilutions were tested in triplicate and the reaction was incubated for 1 h at room temperature. The reaction was terminated by filtration through Whatman GF/B filters, presoaked for 1 h in 0.5% polyethylenimine, using a Brandel R48 filtering manifold (Brandel Instruments, Gaithersburg, MD). The filters were washed three times with 3 mL of ice-cold EBSS buffer and transferred to scintillation vials. CytoScint liquid scintillation cocktail (3 mL, MP Biomedicals, Solon, OH) was added, and vials were counted using a PerkinElmer Tri-Carb 2910 TR liquid scintillation counter (Waltham, MA).

O=C(NCCCCN1CCN(c2cccc(Cl)c2Cl)CC1)C1COC(c2ccccc2)(c2ccccc2)CO1 (stereo not drawn) [compound 6, N-(4-(4-(2,3-Dichlorophenyl)piperazin-1-yl)butyl)-5,5-diphenyl-1,4-dioxane-2-carboxamide]
Ki (5-HT2AR): 28 ± 6 nM | Ki (D4R): 54.6 ± 7.3 nM

O=C(NCCCCN1CCN(c2cccc(Cl)c2Cl)CC1)C1COCC(c2ccccc2)(c2ccccc2)O1 (stereo not drawn) [compound 3, N-(4-(4-(2,3-Dichlorophenyl)piperazin-1-yl)butyl)-6,6-diphenyl-1,4-dioxane-2-carboxamide]
Ki (5-HT2AR): 257 ± 38 nM | Ki (D4R): 1350 ± 449 nM

O=C(NCCCCN1CCN(c2cccc(Cl)c2Cl)CC1)C1COc2ccccc2O1 (stereo not drawn) [compound 9, N-(4-(4-(2,3-Dichlorophenyl)piperazin-1-yl)butyl)-2,3-dihydrobenzo[b][1,4]dioxine-2-carboxamide]
Ki (5-HT2AR): 62 ± 15 nM | Ki (D4R): 74.7 ± 24.5 nM
